Assay results from patent US20240300943A1, “NOVEL SALTS OF HETEROCYCLIC COMPOUND AS PROTEIN KINASE INHIBITOR AND USES THEREOF” (HK INNO.N CORPORATION, priority 2021, published 2024).

Tests used:
JAK1, Tyk2 = assay: Human whole blood assay, JAK1, Tyk2; type: cell-based; conditions: cytokine-induced STAT phosphorylation
Protocol: A stock solution of Compound 1 obtained according to Preparation Example 1 was diluted with distilled water and then serially diluted at ⅕ with 4% DMSO. 5 μL of test material was added to 100 μL of whole blood collected using a 1.7 mL eppendorf tube, mixed, and incubated at 37° C. for 45 minutes.
IL-6 (10 μg/ml) was diluted with 0.1% BSA/DW to reach 1 μg/mL each. 5 μL of IL-6 was added (at a final concentration of 50 ng/mL) and incubated at 37° C. for 15 minutes. At this time, 5 μL of DPBS was added as a non-stimulated control group. Lyse/fix buffer 5× was diluted 1× in distilled water and used. […]
For double staining of CD4 and pSTATI, anti-[…] and anti-pSTATI were mixed in a staining buffer and added to each of the samples. […] On the next day, the results were analyzed using FACSCanto II. […]
The numerical values analyzed by FlowJo were calculated to obtain IC50 values using GraphPad Prism 5 software (product name).
No treatment response (NTR) was set as a reference, and the degree of the phosphorylation of STAT induced by cytokines was converted into a relative ratio (% control group). A dose-response plot was obtained for each concentration-dependent activity of each test material using GraphPad Prism (version 5.0) and ICso values were calculated.

JAK3 = biological target: T1, JAK3 (Homo sapiens, UniProt P52333); assay: ADP-Glo JAK3 kinase assay; type: biochemical; conditions: read-out: IC50, In vitro enzyme JAK3
T1 sequence (P52333 1-1124): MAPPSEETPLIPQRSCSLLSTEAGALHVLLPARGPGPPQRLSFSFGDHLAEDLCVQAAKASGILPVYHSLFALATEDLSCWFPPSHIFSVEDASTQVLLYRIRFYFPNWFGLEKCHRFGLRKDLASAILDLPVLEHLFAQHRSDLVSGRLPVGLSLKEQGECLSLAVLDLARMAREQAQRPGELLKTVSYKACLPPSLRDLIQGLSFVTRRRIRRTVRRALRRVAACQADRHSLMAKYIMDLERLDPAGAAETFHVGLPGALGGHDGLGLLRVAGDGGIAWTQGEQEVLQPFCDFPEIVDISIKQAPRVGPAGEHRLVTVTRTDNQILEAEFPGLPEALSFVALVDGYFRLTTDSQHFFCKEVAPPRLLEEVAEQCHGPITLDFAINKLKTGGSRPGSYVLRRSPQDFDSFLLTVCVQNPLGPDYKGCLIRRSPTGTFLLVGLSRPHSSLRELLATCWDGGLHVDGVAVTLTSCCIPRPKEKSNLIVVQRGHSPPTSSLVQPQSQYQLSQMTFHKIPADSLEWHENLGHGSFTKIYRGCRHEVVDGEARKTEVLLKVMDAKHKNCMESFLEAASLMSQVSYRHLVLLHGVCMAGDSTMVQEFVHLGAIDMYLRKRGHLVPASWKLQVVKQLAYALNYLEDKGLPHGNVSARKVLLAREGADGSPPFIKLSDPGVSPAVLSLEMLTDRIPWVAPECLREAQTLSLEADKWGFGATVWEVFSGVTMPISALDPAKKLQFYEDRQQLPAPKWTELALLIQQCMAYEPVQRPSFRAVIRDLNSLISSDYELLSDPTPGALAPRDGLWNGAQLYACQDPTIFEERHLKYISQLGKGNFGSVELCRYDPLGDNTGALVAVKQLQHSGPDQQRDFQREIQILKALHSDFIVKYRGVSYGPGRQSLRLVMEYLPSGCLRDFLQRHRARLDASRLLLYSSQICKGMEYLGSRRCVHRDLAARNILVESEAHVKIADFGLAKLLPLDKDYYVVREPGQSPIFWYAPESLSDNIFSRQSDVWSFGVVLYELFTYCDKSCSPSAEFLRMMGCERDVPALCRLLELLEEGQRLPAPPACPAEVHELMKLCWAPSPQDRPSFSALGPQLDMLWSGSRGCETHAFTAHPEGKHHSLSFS
Protocol: 10 mM of Compound 1 was diluted in DMSO to prepare samples at four concentrations (50,000 nM, 5,000 nM, 500 nM and 50 nM). 10 mM of ATP was diluted at 1/40 in 1× kinase buffer to make a preparation. 1 mg/mL of Poly (Glu4, Tyr1) peptide was used as a stock solution. 100 ng/μL of JAK3 enzyme was diluted at 1/20 in 1× kinase buffer to make a preparation. 1 μL of ATP, 1 μL of Poly (Glu4, Tyr1) peptide, and 1 μL of Compound 1 prepared as above were mixed, after which 2 μL of JAK3 enzyme was finally added and reacted at 30° C. for 40 minutes. At this time, a tube without JAK3 enzyme was prepared as a blank and a tube without Compound 1 was prepared as a positive control group together (a final concentration of samples was 10,000 nM, 1,000 nM, 100 nM, and 10 nM).
Then, 5 μL of ADP-glo was added to each tube and reacted at 30° C. for 40 minutes, after which 10 μL of kinase detection reagent was added thereto and reacted at room temperature for 15 minutes. After 18 μL of the reactant was transferred to a 384 well plate, luminescence was measured using a plate reader.

[1] = Physical stability evaluation under stress conditions; type: physicochemical
Protocol: In order to evaluate physical stability, samples were packaged in the form of ((LPDE+N2)+silica gel 1 g+LDPE)+Al-Bag, and stored under stress conditions (60° C.±2° C./80% RH±5%) for 2/4 weeks before evaluation.
In table 2, initial is a result measured after preparation of salts, and S2W and S4W are results measured after two and four weeks while being exposed to stress conditions, respectively.

| IC50 (JAK1, Tyk2) [nM] | IC50 (JAK3) [nM] | C.I quantitative ([1]; Initial) [%] | Content (anhydride, as anhydride) ([1]; Initial) [%] | Moisture ([1]; Initial) [%] | Purity: Individual related material ([1]; Initial) [%] | Purity: Total related material ([1]; Initial) [%] | C.I quantitative ([1]; S2W: 2 weeks at 60° C./80% RH) [%] | Content (anhydride, as anhydride) ([1]; S2W: 2 weeks at 60° C./80% RH) [%] | Moisture ([1]; S2W: 2 weeks at 60° C./80% RH) [%] | Purity: Individual related material ([1]; S2W: 2 weeks at 60° C./80% RH) [%] | Purity: Total related material ([1]; S2W: 2 weeks at 60° C./80% RH) [%] | C.I quantitative ([1]; S4W: 4 weeks at 60° C./80% RH) [%] | Content (anhydride, as anhydride) ([1]; S4W: 4 weeks at 60° C./80% RH) [%] | Moisture ([1]; S4W: 4 weeks at 60° C./80% RH) [%] | Purity: Individual related material ([1]; S4W: 4 weeks at 60° C./80% RH) [%] | Purity: Total related material ([1]; S4W: 4 weeks at 60° C./80% RH) [%] | SMILES |
| --- | --- | --- | --- | --- | --- | --- | --- | --- | --- | --- | --- | --- | --- | --- | --- | --- | --- |
| 168 | 315 |  |  |  |  |  |  |  |  |  |  |  |  |  |  |  | C[C@@H]1CN(C(=O)CC#N)CC=C1c1cc(NC(=O)C2CC2)nc2[nH]ccc12 [Compound 1, (S)—N-(4-(1-(2-cyanoacetyl)-3-methyl-1,2,3,6-tetrahydropyridin-4-yl)-1H-pyrrolo[2,3-b]pyridin-6-yl)cyclopropanecarboxamide] |
|  |  | 24.0 | 98.9 | 0.2 | 0.08 | 0.41 | 24.1 | 99.9 | 0.2 | 0.08 | 0.43 | 23.8 | 99.9 | 0.2 | 0.11 | 0.53 | C[C@@H]1CN(C(=O)CC#N)CC=C1c1cc(NC(=O)C2CC2)nc2[nH]ccc12 [Example 3, (S)—N-(4-(1-(2-cyanoacetyl)-3-methyl-1,2,3,6-tetrahydropyridin-4-yl)-1H-pyrrolo[2,3-b]pyridin-6-yl)cyclopropanecarboxamide] |
